Reference: patent US20230114728A1 (Venatorx Pharmaceuticals, Inc., priority 2019, published 2023)
Values after ≈ are worked out from the molar mass of the structure shown.

Key:
N. gonorrhoeae PBP2 = biological target: T1, N. gonorrhoeae PBP2 (Neisseria gonorrhoeae, UniProt P08149); assay: Bocillin-FL fluorescence polarization competition binding assay, N. gonorrhoeae PBP2; settings: fluorescence polarization competition binding assay using Bocillin-FL; read-out: N. gonorrhoeae PBP2 Potency
T1 construct: made in house
T1 sequence (P08149 whole entry): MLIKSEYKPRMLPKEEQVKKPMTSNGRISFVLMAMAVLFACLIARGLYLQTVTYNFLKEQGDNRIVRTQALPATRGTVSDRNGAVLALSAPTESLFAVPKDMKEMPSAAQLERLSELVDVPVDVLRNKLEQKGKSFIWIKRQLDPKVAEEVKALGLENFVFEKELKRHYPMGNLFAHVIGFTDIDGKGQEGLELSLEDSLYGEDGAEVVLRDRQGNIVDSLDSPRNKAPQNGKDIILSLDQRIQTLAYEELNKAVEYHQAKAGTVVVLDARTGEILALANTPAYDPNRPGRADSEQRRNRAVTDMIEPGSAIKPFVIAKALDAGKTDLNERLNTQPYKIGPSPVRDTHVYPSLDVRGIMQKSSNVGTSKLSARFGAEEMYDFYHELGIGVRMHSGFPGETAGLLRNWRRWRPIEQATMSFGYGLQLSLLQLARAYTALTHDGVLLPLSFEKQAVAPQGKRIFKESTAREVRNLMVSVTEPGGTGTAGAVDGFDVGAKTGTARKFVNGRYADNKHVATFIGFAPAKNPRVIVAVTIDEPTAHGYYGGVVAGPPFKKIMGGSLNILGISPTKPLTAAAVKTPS
Summary of the method: (§1)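 Fluorescence polarization (ex 490/em 520 nm) competition of inhibitors against Bocillin-FL at 0.1 μM, read up to 60 min. Final PBP levels: E. coli PBP3 1.5 μM; A. baumannii PBP2 2.5 μM, PBP3 0.2 μM in Tris pH 8.0/NaCl/glycerol/Tween 20; N. gonorrhoeae PBP2 […] in Hepes pH 8.0/NaCl/glycerol. EC50 = concentration halving PBP-bound Bocillin-FL.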

[1] = Bocillin-FL fluorescence polarization competition binding assay, A. baumannii PBP3; settings: fluorescence polarization competition binding assay using Bocillin-FL; column 3; read-out: 4. baumannii PBP1a Potency
Summary of the method: as §1

P. aeruginosa CDC-0110 = assay: Broth microdilution MIC in iron-depleted CAMHB (IDM); type: cell-based; settings: Pseudomonas aeruginosa, CDC0110, read-out: Minimum Inhibitory Concentration, P. aeruginosa CDC-0110
Summary of the method: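 CLSI broth microdilution in iron-depleted cation-adjusted Mueller Hinton broth (Chelex-treated, Ca, Mg, Zn restored, pH 7.3), inoculum 2-8×10^5 CFU/mL, 2-fold compound dilutions. Pseudomonas plates incubated 16-20 h at 37 °C; MIC read visually as lowest concentration without growth.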

[2] = test system: A. baumannii CDC-0045 producing TEM-1D, OXA-23, and OXA-69; assay: as above; type: cell-based; settings: Acinetobacter baumannii, read-out: Minimum Inhibitory Concentration, CDC-0045
A. baumannii ATCC 19606 = assay: as above; type: cell-based; settings: Acinetobacter baumannii, ATCC19606, read-out: Minimum Inhibitory Concentration, ATCC 19606
Summary of the method: (§2)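 CLSI broth microdilution in Chelex-treated cation-adjusted Mueller-Hinton broth, refortified with Ca, Mg and 10 μM ZnSO4, pH 7.3. Inoculum 2-8×10^5 CFU/mL; 37 °C for 16-20 h (Pseudomonas) or 20-24 h (Acinetobacter). MIC read visually as lowest concentration without growth.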

P. aeruginosa ATCC 27853 = assay: as above; type: cell-based; settings: Pseudomonas aeruginosa, ATCC27853, read-out: Minimum Inhibitory Concentration, P. aeruginosa ATCC 27853
Summary of the method: as §2

Compound: CCN1CCN(C(=O)N[C@@H](C(=O)N[C@H]2Cc3cccc(C(=O)O)c3OB2O)c2c(O)cc(O)cc2F)C(=O)C1=O (single isomer, unassigned) [Example 182]
- EC50 (N. gonorrhoeae PBP2): > 100 µM
- EC50 [1]: > 100 µM

Compound: NCCN1CCN(C(=O)N[C@@H](C(=O)N[C@H]2Cc3cccc(C(=O)O)c3OB2O)c2ccc(O)c(Cl)c2F)C(=O)C1=O (single isomer, unassigned) [Example 186]
- EC50 (N. gonorrhoeae PBP2): < 10 µM

Compound: NCCN1CCN(C(=O)N[C@H](C(=O)N[C@H]2Cc3cccc(C(=O)O)c3OB2O)c2ccc(O)c(Cl)c2F)C(=O)C1=O (single isomer, unassigned) [Example 187]
- EC50 (N. gonorrhoeae PBP2): 10 to 30 µM

Compound: NCCN1CCN(C(=O)N[C@@H](C(=O)N[C@H]2Cc3cccc(C(=O)O)c3OB2O)c2c(O)cc(O)cc2F)C(=O)C1=O (single isomer, unassigned) [Example 194]
- EC50 (N. gonorrhoeae PBP2): 30 to 100 µM

Compound: NCCCN1CCN(C(=O)N[C@@H](C(=O)N[C@H]2Cc3cccc(C(=O)O)c3OB2O)c2c(O)cc(O)cc2F)C(=O)C1=O (single isomer, unassigned) [Example 195]
- EC50 (N. gonorrhoeae PBP2): 10 to 30 µM

Compound: NCCN1CCN(C(=O)N[C@@H](C(=O)N[C@H]2Cc3cccc(C(=O)O)c3OB2O)c2ccc(O)c([N+](=O)[O-])c2)C(=O)C1=O (single isomer, unassigned) [Example 199]
- EC50 (N. gonorrhoeae PBP2): 10 to 30 µM

Compound: NCCN1CCN(C(=O)N[C@H](C(=O)N[C@H]2Cc3cccc(C(=O)O)c3OB2O)c2ccc(O)c([N+](=O)[O-])c2)C(=O)C1=O (single isomer, unassigned) [Example 200]
- EC50 (N. gonorrhoeae PBP2): > 100 µM

Compound: CCN1CCN(C(=O)N[C@H](C(=O)N[C@H]2Cc3cccc(C(=O)O)c3OB2O)c2ccc(C(=O)O)c(F)c2Cl)C(=O)C1=O (single isomer, unassigned) [Example 202]
- EC50 (N. gonorrhoeae PBP2): > 100 µM

Compound: CCN1CCN(C(=O)N[C@@H](C(=O)N[C@H]2Cc3cccc(C(=O)O)c3OB2O)c2ccc(C(=O)O)c(F)c2Cl)C(=O)C1=O (single isomer, unassigned) [Example 203]
- EC50 (N. gonorrhoeae PBP2): < 10 µM

Compound: CCN1CCN(C(=O)N[C@@H](C(=O)N[C@H]2Cc3ccc(F)c(C(=O)O)c3OB2O)c2c(Cl)cc(O)c(O)c2F)C(=O)C1=O (single isomer, unassigned) [Example 207]
- MIC (P. aeruginosa CDC-0110): 2 to 4 µg/mL (≈ 3.27 to 6.55 µM)
- MIC [2]: > 128 µg/mL
- EC50 [1]: 10 to 30 µM
- MIC (A. baumannii ATCC 19606): 0.5 to 1 µg/mL (≈ 0.819 to 1.64 µM)
- MIC (P. aeruginosa ATCC 27853): 2 to 4 µg/mL (≈ 3.27 to 6.55 µM)

Compound: O=C(NCCCN1CCN(C(=O)NC(C(=O)N[C@H]2Cc3cccc(C(=O)O)c3OB2O)c2ncc(O)cc2F)C(=O)C1=O)c1ccc(O)c(O)c1Cl (stereo partly drawn) [Example 1, (3R)-3-(2-(4-(3-(2-chloro-3,4-dihydroxybenzamido)propyl)-2,3-dioxopiperazine-1-carboxamido)-2-(3-fluoro-5-hydroxypyridin-2-yl)acetamido)-2-hydroxy-3,4-dihydro-2H-benzo[e][1,2]oxaborinine-8-carboxylic acid]
- MIC (A. baumannii ATCC 19606): 2 to 4 µg/mL (≈ 2.69 to 5.38 µM)
- MIC (P. aeruginosa ATCC 27853): 8 to 16 µg/mL (≈ 10.8 to 21.5 µM)

Compound: C[C@H]1CN(CCNC(=O)c2ccc(O)c(O)c2Cl)C(=O)C(=O)N1C(=O)NC(C(=O)N[C@H]1Cc2cccc(C(=O)O)c2OB1O)c1ncc(O)cc1F (stereo partly drawn) [Example 2, (3R)-3-(2-((S)-4-(2-(2-chloro-3,4-dihydroxybenzamido)ethyl)-6-methyl-2,3-dioxopiperazine-1-carboxamido)-2-(3-fluoro-5-hydroxypyridin-2-yl)acetamido)-2-hydroxy-3,4-dihydro-2H-benzo[e][1,2]oxaborinine-8-carboxylic acid]
- MIC (P. aeruginosa CDC-0110): 2 to 4 µg/mL (≈ 2.69 to 5.38 µM)
- MIC [2]: 2 to 4 µg/mL (≈ 2.69 to 5.38 µM)
- EC50 [1]: < 10 µM
- MIC (A. baumannii ATCC 19606): 0.5 to 1 µg/mL (≈ 0.673 to 1.35 µM)
- MIC (P. aeruginosa ATCC 27853): 2 to 4 µg/mL (≈ 2.69 to 5.38 µM)

Compound: O=C(NCCCN1CCN(C(=O)NC(C(=O)N[C@H]2Cc3ccc(F)c(C(=O)O)c3OB2O)c2ncc(O)cc2F)C(=O)C1=O)c1ccc(O)c(O)c1Cl (stereo partly drawn) [Example 3, (3R)-3-(2-(4-(3-(2-chloro-3,4-dihydroxybenzamido)propyl)-2,3-dioxopiperazine-1-carboxamido)-2-(3-fluoro-5-hydroxypyridin-2-yl)acetamido)-7-fluoro-2-hydroxy-3,4-dihydro-2H-benzo[e][1,2]oxaborinine-8-carboxylic acid]
- MIC (P. aeruginosa CDC-0110): 2 to 4 µg/mL (≈ 2.63 to 5.26 µM)
- MIC [2]: 32 to 64 µg/mL (≈ 42.1 to 84.1 µM)
- EC50 [1]: < 10 µM
- MIC (A. baumannii ATCC 19606): 32 to 64 µg/mL (≈ 42.1 to 84.1 µM)
- MIC (P. aeruginosa ATCC 27853): 2 to 4 µg/mL (≈ 2.63 to 5.26 µM)

Compound: Nc1nc(C(NC(=O)N2CCN(CCNC(=O)c3ccc(O)c(O)c3Cl)C(=O)C2=O)C(=O)N[C@H]2Cc3ccc(F)c(C(=O)O)c3OB2O)c(F)s1 (stereo partly drawn) [Example 4, (3R)-3-(2-(2-amino-5-fluorothiazol-4-yl)-2-(4-(2-(2-chloro-3,4-dihydroxybenzamido)ethyl)-2,3-dioxopiperazine-1-carboxamido)acetamido)-7-fluoro-2-hydroxy-3,4-dihydro-2H-benzo[e][1,2]oxaborinine-8-carboxylic acid]
- MIC (P. aeruginosa CDC-0110): 0.25 µg/mL (≈ 0.333 µM)
- MIC [2]: 2 to 4 µg/mL (≈ 2.66 to 5.32 µM)
- MIC (A. baumannii ATCC 19606): 0.5 to 1 µg/mL (≈ 0.665 to 1.33 µM)
- MIC (P. aeruginosa ATCC 27853): 0.25 µg/mL (≈ 0.333 µM)

Compound: O=C(NCCN1CCN(C(=O)NC(C(=O)N[C@H]2Cc3ccc(F)c(C(=O)O)c3OB2O)c2ncc(O)cc2F)C(=O)C1=O)c1c(F)cc(O)c(O)c1Cl (stereo partly drawn) [Example 5, (3R)-3-(2-(4-(2-(2-chloro-6-fluoro-3,4-dihydroxybenzamido)ethyl)-2,3-dioxopiperazine-1-carboxamido)-2-(3-fluoro-5-hydroxypyridin-2-yl)acetamido)-7-fluoro-2-hydroxy-3,4-dihydro-2H-benzo[e][1,2]oxaborinine-8-carboxylic acid]
- MIC (P. aeruginosa CDC-0110): 0.25 µg/mL (≈ 0.327 µM)
- MIC [2]: 2 to 4 µg/mL (≈ 2.61 to 5.23 µM)
- EC50 [1]: < 10 µM
- MIC (A. baumannii ATCC 19606): 0.5 to 1 µg/mL (≈ 0.654 to 1.31 µM)
- MIC (P. aeruginosa ATCC 27853): 0.25 µg/mL (≈ 0.327 µM)

Compound: NCCCN1CCN(C(=O)NC(C(=O)N[C@H]2Cc3cccc(C(=O)O)c3OB2O)c2c(F)cc(O)cc2F)C(=O)C1=O (stereo partly drawn) [Example 183, (3R)-3-(2-(4-(3-aminopropyl)-2,3-dioxopiperazine-1-carboxamido)-2-(2,6-difluoro-4-hydroxyphenyl)acetamido)-2-hydroxy-3,4-dihydro-2H-benzo[e][1,2]oxaborinine-8-carboxylic acid]
- EC50 (N. gonorrhoeae PBP2): < 10 µM

Compound: CCN1CCN(C(=O)NC(C(=O)N[C@H]2Cc3cccc(C(=O)O)c3OB2O)c2cc([N+](=O)[O-])c(O)cc2F)C(=O)C1=O (stereo partly drawn) [Example 184, (3R)-3-(2-(4-ethyl-2,3-dioxopiperazine-1-carboxamido)-2-(2-fluoro-4-hydroxy-5-nitrophenyl)acetamido)-2-hydroxy-3,4-dihydro-2H-benzo[e][1,2]oxaborinine-8-carboxylic acid]
- EC50 (N. gonorrhoeae PBP2): < 10 µM

Compound: CCN1CCN(C(=O)NC(C(=O)N[C@H]2Cc3cccc(C(=O)O)c3OB2O)c2ccc(O)c(Cl)c2F)C(=O)C1=O (stereo partly drawn) [Example 185, (3R)-3-(2-(3-chloro-2-fluoro-4-hydroxyphenyl)-2-(4-ethyl-2,3-dioxopiperazine-1-carboxamido)acetamido)-2-hydroxy-3,4-dihydro-2H-benzo[e][1,2]oxaborinine-8-carboxylic acid]
- EC50 (N. gonorrhoeae PBP2): < 10 µM

Compound: CCN1CCN(C(=O)NC(C(=O)N[C@H]2Cc3cccc(C(=O)O)c3OB2O)c2c(F)cc(NC(C)=O)cc2F)C(=O)C1=O (stereo partly drawn) [Example 188, (3R)-3-(2-(4-acetamido-2,6-difluorophenyl)-2-(4-ethyl-2,3-dioxopiperazine-1-carboxamido)acetamido)-2-hydroxy-3,4-dihydro-2H-benzo[e][1,2]oxaborinine-8-carboxylic acid]
- EC50 (N. gonorrhoeae PBP2): < 10 µM
- EC50 [1]: < 10 µM

Compound: CCN1CCN(C(=O)NC(C(=O)N[C@H]2Cc3cccc(C(=O)O)c3OB2O)c2cc(C#N)c(OC)cc2F)C(=O)C1=O (stereo partly drawn) [Example 192, (3R)-3-(2-(5-cyano-2-fluoro-4-methoxyphenyl)-2-(4-ethyl-2,3-dioxopiperazine-1-carboxamido)acetamido)-2-hydroxy-3,4-dihydro-2H-benzo[e][1,2]oxaborinine-8-carboxylic acid]
- EC50 (N. gonorrhoeae PBP2): 10 to 30 µM

Compound: O=C(O)c1cccc2c1OB(O)[C@@H](NC(=O)C(NC(=O)N1CCN(CC3CNC3)C(=O)C1=O)c1c(F)cc(O)cc1F)C2 (stereo partly drawn) [Example 193, (3R)-3-(2-(4-(azetidin-3-ylmethyl)-2,3-dioxopiperazine-1-carboxamido)-2-(2,6-difluoro-4-hydroxyphenyl)acetamido)-2-hydroxy-3,4-dihydro-2H-benzo[e][1,2]oxaborinine-8-carboxylic acid]
- EC50 (N. gonorrhoeae PBP2): 10 to 30 µM

Compound: CCN1CCN(C(=O)NC(C(=O)N[C@H]2Cc3cccc(C(=O)O)c3OB2O)c2ccc(C(=O)O)c(O)c2)C(=O)C1=O (stereo partly drawn) [Example 196, (3R)-3-(2-(4-carboxy-3-hydroxyphenyl)-2-(4-ethyl-2,3-dioxopiperazine-1-carboxamido)acetamido)-2-hydroxy-3,4-dihydro-2H-benzo[e][1,2]oxaborinine-8-carboxylic acid]
- EC50 (N. gonorrhoeae PBP2): < 10 µM

Compound: CCN1CCN(C(=O)NC(C(=O)N[C@H]2Cc3cccc(C(=O)O)c3OB2O)c2ccc(C(=O)O)c(Cl)c2Cl)C(=O)C1=O (stereo partly drawn) [Example 201, (3R)-3-(2-(4-carboxy-2,3-dichlorophenyl)-2-(4-ethyl-2,3-dioxopiperazine-1-carboxamido)acetamido)-2-hydroxy-3,4-dihydro-2H-benzo[e][1,2]oxaborinine-8-carboxylic acid]
- EC50 (N. gonorrhoeae PBP2): 10 to 30 µM
